In this test the target is recombinant HCV RNA-dependent RNA polymerase (NS5B protein) (Hepatitis C virus genotype 1b, UniProt P26663). In words: biochemical. Set-up: species or system HCV-Bk strain.
Setting [1] is: read-out: Activity (polymerase activity, IC50).

For 33 molecules, IC50 results are on record in patent US8829030B2 (priority 2002, dated 2014).

Counter-ions that a name gives are not always drawn. Like-named read-outs stand apart in the source and are kept apart here.

recombinant HCV RNA-dependent RNA polymerase (NS5B protein), sequence (P26663 2420-3010 limits assumed): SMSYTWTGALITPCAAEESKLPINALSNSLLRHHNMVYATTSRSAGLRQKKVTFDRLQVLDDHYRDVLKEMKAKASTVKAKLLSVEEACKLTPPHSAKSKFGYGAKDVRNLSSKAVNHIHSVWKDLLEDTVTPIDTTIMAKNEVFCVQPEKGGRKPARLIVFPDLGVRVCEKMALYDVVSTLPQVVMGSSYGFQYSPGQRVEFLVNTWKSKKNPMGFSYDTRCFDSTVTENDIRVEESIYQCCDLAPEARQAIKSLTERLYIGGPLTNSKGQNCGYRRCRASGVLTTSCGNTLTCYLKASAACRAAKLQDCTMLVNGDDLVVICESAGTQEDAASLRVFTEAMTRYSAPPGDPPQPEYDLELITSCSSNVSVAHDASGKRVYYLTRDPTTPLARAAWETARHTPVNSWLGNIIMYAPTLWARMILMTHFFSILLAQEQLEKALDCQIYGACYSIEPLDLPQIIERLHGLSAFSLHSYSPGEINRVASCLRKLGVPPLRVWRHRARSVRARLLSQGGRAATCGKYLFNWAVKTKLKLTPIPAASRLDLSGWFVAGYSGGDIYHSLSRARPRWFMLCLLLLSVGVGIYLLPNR

A word on the IC50: it is the concentration needed to halve the response being measured. For `CC1CCC(C(=O)N(c2cc(-c3ccccc3)sc2C(=O)O)N(C)C)CC1` (stereo not drawn) [Compound 64, 3-[N′,N′-dimethyl-n-(4-methyl-cyclohexanecarbonyl)-hydrazino]-5-phenyl-thiophene-2-carboxylic acid], the 50% inhibitory concentration (IC50) is less than 5 µM. Still for that read-out and setting: next, `C[C@H]1CC[C@H](C(=O)N(c2cc(-c3ccccc3)sc2C(=O)O)[C@H]2CC[C@](C)(O)CC2)CC1` [Compound 88, 3-[(4-hydroxy-4-methyl-cyclohexyl)-(4-methyl-cyclohexanecarbonyl)-amino]-5-phenyl-thiophene-2-carboxylic acid]: less than 5 µM; `CC1CCC(C(=O)N(c2cc(-c3ccccc3)sc2C(=O)O)C(C)CN)CC1` (stereo not drawn) [Compound 36, 3-[(2-amino-1-methyl-ethyl)-(4-methyl-cyclohexanecarbonyl)-amino]-5-phenyl-thiophene-2-carboxylic acid]: less than 5 µM.

`CON=C1CCC(N(C(=O)C2CCC(C)CC2)c2cc(-c3ccccc3)sc2C(=O)O)CC1` (stereo not drawn) [Compound 25, 3-[(4-methoxyimino-cyclohexyl)-(4-methyl-cyclohexanecarbonyl)-amino]-5-phenyl-thiophene-2-carboxylic acid]: the IC50 was less than 5 µM. On the same count and under the same terms, next, `CC1CCC(C(=O)N(c2cc(-c3ccc(C#N)cc3)sc2C(=O)O)C2CCC(O)CC2)CC1` (stereo not drawn) [Compound 61, 5-(4-cyano-phenyl)-3-[(4-hydroxy-cyclohexyl)-(4-methyl-cyclohexanecarbonyl)-amino]-thiophene-2-carboxylic acid]: less than 5 µM.

In the case of `CC1CCC(C(=O)N(c2cc(-c3ccccc3)sc2C(=O)O)C(C)CN=[N+]=[N-])CC1` (stereo not drawn) [Compound 32, 3-[(2-azido-1-methyl-ethyl)-(4-methyl-cyclohexanecarbonyl)-amino]-5-phenyl-thiophene-2-carboxylic acid], the IC50 was less than 5 µM. As for `CC1CCC(C(=O)N(c2cc(-c3ccccc3)sc2C(=O)O)C(C)C)OC1` (stereo not drawn) [Compound 29, 3-[Isopropyl-(cis-5-methyl-tetrahydro-pyran-2-carbonyl)-amino]-5-phenyl-thiophene-2-carboxylic acid], the IC50 was in the range of 5 to 20 µM. Consider `CC1CCC(C(=O)N(c2cc(-c3ccccc3)sc2C(=O)O)C2CCNC(=O)CC2)CC1` (stereo not drawn) [Compound 82, 3-[(4-methyl-cyclohexanecarbonyl)-(7-oxo-azepan-4-yl)-amino]-5-phenyl-thiophene-2-carboxylic acid], for which the concentration for half-maximal inhibition (IC50) under setting [1] is less than 5 µM.

With `CCC(C)C(CN=[N+]=[N-])N(C(=O)c1ccc(Cl)cc1Cl)c1cc(-c2ccccc2)sc1C(=O)O` (stereo not drawn) [Compound 18, 3-[(1-azidomethyl-2-methyl-butyl)-(2,4-dichloro-benzoyl)-amino]-5-phenyl-thiophene-2-carboxylic acid], the IC50 was less than 5 µM.

In the case of `CN(C)N(C(=O)c1ccc(Cl)cc1Cl)c1cc(-c2ccccc2)sc1C(=O)O` [Compound 72, 3-[n-(2,4-dichloro-benzoyl)-N′,N′-dimethyl-hydrazino]-5-phenyl-thiophene-2-carboxylic acid], the IC50 was less than 5 µM. Still for that read-out and setting: to `CC1CCC(C(=O)N(c2cc(-c3ccccc3)sc2C(=O)O)[C@H]2CC[C@@H](C(=O)O)CC2)CC1` (stereo partly drawn) [Compound 78, 3-[(4-carboxy-cyclohexyl)-(4-methyl-cyclohexanecarbonyl)-amino]-5-phenyl-thiophene-2-carboxylic acid] belongs less than 5 µM.

With `CC1CCC(C(=O)N(Cc2cccnc2)c2cc(-c3ccccc3)sc2C(=O)O)CC1` (stereo not drawn) [Compound 3, 3-[(4-methyl-cyclohexanecarbonyl)-pyridin-3-ylmethyl-amino]-5-phenyl-thiophene-2-carboxylic acid], the IC50 was less than 5 µM. For the molecule `CC1=CCC(C(=O)N(c2cc(-c3ccccc3)sc2C(=O)O)C(C)C)CC1` (stereo not drawn) [Compound 17, 3-[isopropyl-(4-methyl-cyclohex-3-enecarbonyl)-amino]-5-phenyl-thiophene-2-carboxylic acid], the IC50 was less than 5 µM. The same measure, in the same setting: next, `CCN(C(=O)c1ccc(C)cc1)c1cc(-c2ccccc2)sc1C(=O)O` [Compound 84, 3-[ethyl-(4-methyl-benzoyl)-amino]-5-phenyl-thiophene-2-carboxylic acid]: less than 5 µM; `O=C(O)c1sc(-c2ccccc2)cc1N(CC1OCCO1)C(=O)c1ccc(Cl)cc1Cl` [Compound 7, 3-[(2,4-dichloro-benzoyl)-[1,3]dioxolan-2-ylmethyl-amino]-5-phenyl-thiophene-2-carboxylic acid]: less than 5 µM. On the same count and under the same terms, to `CC1CCC(C(=O)N(CC2CCN(C)CC2)c2cc(-c3ccccc3)sc2C(=O)O)CC1` (stereo not drawn) [Compound 38, 4-{[(2-carboxy-5-phenyl-thiophen-3-yl)-(4-methyl-cyclohexanecarbonyl)-amino]-methyl}-1-methyl-piperidinium chloride] belongs less than 5 µM. With `CC1CCC(C(=O)N(Cc2ccccn2)c2cc(-c3ccccc3)sc2C(=O)O)CC1` (stereo not drawn) [Compound 14, 3-[(4-methyl-cyclohexanecarbonyl)-pyridin-2-ylmethyl-amino]-5-phenyl-thiophene-2-carboxylic acid], the IC50 was less than 5 µM. The same measure, in the same setting: to `CC1CCC(C(=O)N(c2cc(-c3ccccc3)sc2C(=O)O)C2CCCNCC2)CC1` (stereo not drawn) [Compound 6, 3-[azepan-4-yl-(4-methyl-cyclohexanecarbonyl)-amino]-5-phenyl-thiophene-2-carboxylic acid] belongs less than 5 µM; to `CC1CCC(C(=O)N(CC2CCCN(C)C2)c2cc(-c3ccccc3)sc2C(=O)O)CC1` (stereo not drawn) [Compound 35, 3-{[(2-carboxy-5-phenyl-thiophen-3-yl)-(4-methyl-cyclohexanecarbonyl)-amino]-methyl}-1-methyl-piperidinium chloride], less than 5 µM.

For `CC1CCC(C(=O)N(c2cc(-c3cccc(F)c3)sc2C(=O)O)C(C)C)C(O)C1` (stereo not drawn) [Compound 44, 5-(3-fluoro-phenyl)-3-[(2-hydroxy-4-methyl-cyclohexanecarbonyl)-isopropyl-amino]-thiophene-2-carboxylic acid], the IC50 is less than 5 µM. On the same count and under the same terms, to `CC1CCC(C(=O)N(c2cc(-c3ccccc3)sc2C(=O)O)C2CCC[NH+](C)CC2)CC1` (stereo not drawn) [Compound 49, 4-[(2-carboxy-5-phenyl-thiophen-3-yl)-(4-methyl-cyclohexanecarbonyl)-amino]-1-methyl-azepanium chloride] belongs less than 5 µM. With `CC1CCC(C(=O)N(c2cc(-c3ccccc3)sc2C(=O)O)C2CCN(C(=O)C(N)=O)CC2)CC1` (stereo not drawn) [Compound 83, 3-[(1-aminooxalyl-piperidin-4-yl)-(4-methyl-cyclohexanecarbonyl)-amino]-5-phenyl-thiophene-2-carboxylic acid], the half-maximal inhibitory concentration (IC50) under setting [1] was less than 5 µM. For the molecule `CC1CCC(C(=O)N(c2cc(-c3ccccc3)sc2C(=O)O)C2CCOCC2)C(O)C1` (stereo not drawn) [Compound 31, 3-[(2-hydroxy-4-methyl-cyclohexanecarbonyl)-(tetrahydro-pyran-4-yl)-amino]-5-phenyl-thiophene-2-carboxylic acid], the IC50 is less than 5 µM.

In the case of `CCC(C)C(C[NH3+])N(C(=O)c1ccccc1Cl)c1cc(-c2ccccc2)sc1C(=O)O` (stereo not drawn) [Compound 19, 2-[(2-carboxy-5-phenyl-thiophen-3-yl)-(2-chloro-benzoyl)-amino]-3-methyl-pentyl-ammonium trifluoroacetate], the IC50 was more than 20 µM.

For the molecule `C=C1CCC(C(=O)N(c2cc(-c3ccccc3)sc2C(=O)O)C(C)C)CC1` [Compound 28, 3-[isopropyl-(4-methylene-cyclohexanecarbonyl)-amino]-5-phenyl-thiophene-2-carboxylic acid], the IC50 was less than 5 µM.

Consider `C[C@H]1CC[C@H](C(=O)N(c2cc(-c3ccccc3)sc2C(=O)O)C2CC[S+]([O-])CC2)CC1` (relative stereo) [Compound 68, 3-[(trans-4-Methyl-cyclohexanecarbonyl)-(1-oxo-tetrahydro-thiopyran-4-yl)-amino]-5-phenyl-thiophene-2-carboxylic acid], for which the IC50 is less than 5 µM. As to `CC1CCC(C(=O)N(CC2OCCO2)c2cc(-c3ccccc3)sc2C(=O)O)CC1` (stereo not drawn) [Compound 8, 3-[[1,3]dioxolan-2-ylmethyl-(4-methyl-cyclohexanecarbonyl)-amino]-5-phenyl-thiophene-2-carboxylic acid], the IC50 is less than 5 µM. For `CC(=O)c1ccc(-c2cc(N(C(=O)[C@H]3CC[C@H](C)CC3)[C@H]3CC[C@H](O)CC3)c(C(=O)O)s2)s1` [Compound 80, 5′-acetyl-4-[(4-hydroxy-cyclohexyl)-(4-methyl-cyclohexanecarbonyl)-amino]-[2,2′]bithiophenyl-5-carboxylic acid], the IC50 is less than 5 µM. With `CC1CCC(C(=O)N(c2cc(-c3cccc(F)c3)sc2C(=O)O)C(C)C)CC1` (stereo not drawn) [Compound 5, 5-(3-fluoro-phenyl)-3-[isopropyl-(4-methyl-cyclohexanecarbonyl)-amino]-thiophene-2-carboxylic acid], the IC50 under setting [1] was less than 5 µM. With `CC1CCC(C(=O)N(CC2CCCN(C)C2)c2cc(-c3ccc(F)cc3)sc2C(=O)O)CC1` (stereo not drawn) [Compound 69, 5-(4-fluorophenyl)-((4-methyl-cyclohexanecarbonyl)-1-(methyl-piperidin-3-ylmethyl)-amino)-thiophene-2-carboxylic acid], the IC50 was less than 5 µM. `CC1=CCC(C(=O)N(c2cc(-c3ccc(F)cc3)sc2C(=O)O)C(C)C)CC1` (stereo not drawn) [Compound 53, 5-(4-fluoro-phenyl)-3-[isopropyl-(4-methyl-cyclohex-3-enecarbonyl)-amino]-thiophene-2-carboxylic acid]: the IC50 is less than 5 µM. On the same count and under the same terms, to `COc1ccc(CN2CCC(N(c3cc(-c4ccccc4)sc3C(=O)O)C(=O)[C@H]3CC[C@H](C)CC3)CC2=O)cc1` (stereo partly drawn) [Compound 42, 3-[[1-(4-methoxy-benzyl)-2-oxo-piperidin-4-yl]-(4-methyl-cyclohexanecarbonyl)-amino]-5-phenyl-thiophene-2-carboxylic acid] belongs less than 5 µM; to `CC1CCC(C(=O)N(c2cc(-c3ccccc3)sc2C(=O)O)C2CCC(=NO)CC2)CC1` (stereo not drawn) [Compound 16, 3-[(4-hydroxyimino-cyclohexyl)-(4-methyl-cyclohexanecarbonyl)-amino]-5-phenyl-thiophene-2-carboxylic acid], less than 5 µM.
